Reference: ChEMBL document CHEMBL1145675, “Antibacterial activity studies of flavonoids from Salvia palaestina” (1983)
In brackets after ≈: the same amount, converted by molar mass.

What was measured:
Type in all cases: functional
Staphylococcus aureus [1] = test: Antimicrobial activity against Staphylococcus aureus ATCC 6538 by disc-diffusion method
[2] = system: Staphylococcus epidermidis; test: Antimicrobial activity against Staphylococcus epidermidis ATCC 12228 by disc-diffusion method
Escherichia coli [3] = test: Antimicrobial activity against Escherichia coli ATCC 8739 by tube dilution method
Klebsiella pneumoniae [4] = test: Antimicrobial activity against Klebsiella pneumoniae UC57 by disc-diffusion method
Proteus vulgaris [5] = test: Antimicrobial activity against Proteus vulgaris ATCC 8427 by disc-diffusion method
Pseudomonas aeruginosa [6] = test: Antimicrobial activity against Pseudomonas aeruginosa ATCC 1539 by disc-diffusion method
Escherichia coli [7] = test: Antimicrobial activity against Escherichia coli ATCC 8739 by disc-diffusion method
Pseudomonas aeruginosa [8] = test: Antimicrobial activity against Pseudomonas aeruginosa ATCC 1539 by tube dilution method
Klebsiella pneumoniae [9] = test: Antimicrobial activity against Klebsiella pneumoniae UC57 by tube dilution method
Staphylococcus aureus [10] = test: Antimicrobial activity against Staphylococcus aureus ATCC 6538 by tube dilution method
[11] = system: Staphylococcus epidermidis; test: Antimicrobial activity against Staphylococcus epidermidis ATCC 12228 by tube dilution method
Proteus vulgaris [12] = test: Antimicrobial activity against Proteus vulgaris ATCC 8427 by tube dilution method

Structure (SMILES) | inhibition zone (IZ) (Staphylococcus aureus [1]) [mm] | inhibition zone (IZ) [2] [mm] | MBC (Escherichia coli [3]) [µg/mL] | MIC (Escherichia coli [3]) [µg/mL] | inhibition zone (IZ) (Klebsiella pneumoniae [4]) [mm] | inhibition zone (IZ) (Proteus vulgaris [5]) [mm] | inhibition zone (IZ) (Pseudomonas aeruginosa [6]) [mm] | inhibition zone (IZ) (Escherichia coli [7]) [mm] | MBC (Pseudomonas aeruginosa [8]) [µg/mL] | MIC (Pseudomonas aeruginosa [8]) [µg/mL] | MBC (Klebsiella pneumoniae [9]) [µg/mL] | MIC (Klebsiella pneumoniae [9]) [µg/mL] | MBC (Staphylococcus aureus [10]) [µg/mL] | MIC (Staphylococcus aureus [10]) [µg/mL] | MBC [11] [µg/mL] | MIC [11] [µg/mL] | MBC (Proteus vulgaris [12]) [µg/mL] | MIC (Proteus vulgaris [12]) [µg/mL]
O=c1cc(-c2ccc(O)c(O)c2)oc2cc(O[C@@H]3O[C@H](CO)[C@@H](O)[C@H](O)[C@H]3O)cc(O)c12 [GALUTEOLIN] | <7 | <7 | 500 (≈ 1120 µM) | 250 (≈ 558 µM) | <7 | <7 | <7 |  |  |  |  |  |  |  |  |  |  | 
COc1ccc(-c2cc(=O)c3cc(OC)c(OC)cc3o2)cc1OC | <7 | <7 |  |  | <7 | <7 |  | <7 | 250 (≈ 730 µM) | 125 (≈ 365 µM) |  |  |  |  |  |  |  | 
O=c1cc(-c2ccc(O)c(O)c2)oc2cc(O)cc(O)c12 [LUTEOLIN] | <7 | <7 | 500 (≈ 1750 µM) | 125 (≈ 437 µM) |  | <7 |  |  | 500 (≈ 1750 µM) | 125 (≈ 437 µM) | 500 (≈ 1750 µM) | 125 (≈ 437 µM) |  |  |  |  |  | 
COc1cc2oc(-c3ccc(O)cc3)cc(=O)c2c(O)c1OC [CIRSIMARITIN] |  |  | 90 (≈ 286 µM) | 45 (≈ 143 µM) |  |  |  |  | 125 (≈ 398 µM) | 31.2 (≈ 99.4 µM) | 90 (≈ 286 µM) | 45 (≈ 143 µM) | 125 (≈ 398 µM) | 31.2 (≈ 99.4 µM) | 125 (≈ 398 µM) | 62.5 (≈ 199 µM) | 125 (≈ 398 µM) | 31.2 (≈ 99.4 µM)
